Target: Neuraminidase (Influenza A virus (strain A/Brevig Mission/1/1918 H1N1), UniProt Q9IGQ6)
Test: Inhibition of recombinant influenza A virus H1N1 A/Bervig_Mission/1/18 sialidase activity using 4-methylumbelliferyl-alpha-D-N-acetylneuraminic acid sodium salt hydrate as substrate by fluorimetric analysis

Neuraminidase, sequence (Q9IGQ6 whole entry): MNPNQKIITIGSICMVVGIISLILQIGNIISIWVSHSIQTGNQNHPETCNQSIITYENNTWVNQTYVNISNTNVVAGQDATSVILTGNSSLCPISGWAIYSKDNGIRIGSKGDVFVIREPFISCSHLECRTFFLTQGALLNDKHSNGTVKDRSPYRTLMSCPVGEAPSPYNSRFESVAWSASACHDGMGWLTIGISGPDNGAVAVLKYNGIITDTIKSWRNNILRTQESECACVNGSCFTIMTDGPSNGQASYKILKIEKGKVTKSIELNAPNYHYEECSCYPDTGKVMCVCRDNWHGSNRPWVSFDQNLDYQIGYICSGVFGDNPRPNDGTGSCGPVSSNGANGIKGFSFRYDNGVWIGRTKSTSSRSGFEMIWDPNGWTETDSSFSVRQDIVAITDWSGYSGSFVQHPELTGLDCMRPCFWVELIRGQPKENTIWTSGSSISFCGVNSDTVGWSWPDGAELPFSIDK

SMILES: CC(C)=CC=C(OC(=O)C(C)C)c1cc(O)c2c(O)ccc(O)c2c1O
- IC50: 40.5 µM

SMILES: CC(C)=CC=C(OC(=O)CC(C)(C)O)c1cc(O)c2c(O)ccc(O)c2c1O [(R)-1-(5,8-dihydroxy-1,4-dioxo-1,4-dihydronaphthalen-2-yl)-4-methylpent-3-enyl 3-hydroxy-3-methylbutanoate]
- IC50: 40.5 µM
